{"source": "paper PMC11470957", "about": "“Principles of paralog-specific targeted protein degradation engaging the C-degron E3 KLHDC2” (Nature Communications, 2024)", "key": {"[1]": {"tested_on": "BD2 domain from BRD2, BRD3, or BRD4 / neddylated CRL2^KLHDC2", "test": "Pulse-chase PROTAC-dependent ubiquitylation of BRD BD2 domains by neddylated CRL2^KLHDC2", "details": "prodrug tested"}, "BRD3": {"biological_target": "BRD3 (Homo sapiens, UniProt Q15059)", "sequence (Q15059 whole entry)": "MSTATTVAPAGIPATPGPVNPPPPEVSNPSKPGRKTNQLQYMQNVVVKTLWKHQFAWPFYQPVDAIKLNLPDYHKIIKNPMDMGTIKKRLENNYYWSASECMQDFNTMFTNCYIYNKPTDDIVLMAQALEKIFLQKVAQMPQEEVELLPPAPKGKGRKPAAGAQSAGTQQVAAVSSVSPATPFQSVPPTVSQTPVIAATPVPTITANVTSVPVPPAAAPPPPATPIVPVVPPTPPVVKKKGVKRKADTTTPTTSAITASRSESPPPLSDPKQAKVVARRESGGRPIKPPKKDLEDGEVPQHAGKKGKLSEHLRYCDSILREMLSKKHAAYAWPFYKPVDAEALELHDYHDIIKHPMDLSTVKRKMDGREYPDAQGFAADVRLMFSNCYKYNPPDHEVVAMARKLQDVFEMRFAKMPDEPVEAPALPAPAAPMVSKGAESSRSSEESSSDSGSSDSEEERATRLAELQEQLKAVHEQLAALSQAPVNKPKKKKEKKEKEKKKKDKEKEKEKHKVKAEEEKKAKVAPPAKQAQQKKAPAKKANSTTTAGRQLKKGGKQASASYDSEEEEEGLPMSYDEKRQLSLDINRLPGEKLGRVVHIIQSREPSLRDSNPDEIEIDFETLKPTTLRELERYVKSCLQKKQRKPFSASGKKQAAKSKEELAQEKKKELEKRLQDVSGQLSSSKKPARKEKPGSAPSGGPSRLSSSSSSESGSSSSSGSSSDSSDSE", "test": "Western blot of BRD3 levels after cellular dosing", "details": "for remaining activity at 2.19382 µM: Log SJ46420 (uM) 2.19382; for remaining activity at 2.19382 µM / remaining activity at 2.49485 µM / remaining activity at 2.79588 µM / remaining activity at 3.09691 µM / remaining activity at 3.39794 µM: Rep1, Rep2; for remaining activity at 2.49485 µM: Log SJ46420 (uM) 2.49485; for remaining activity at 2.79588 µM: Log SJ46420 (uM) 2.79588; for remaining activity at 3.09691 µM: Log SJ46420 (uM) 3.09691; for remaining activity at 3.39794 µM: Log SJ46420 (uM) 3.39794"}, "[2]": {"details": "22Rv1, read-out: BRD3 (DMSO = 100), 22Rv1 cells"}, "[3]": {"details": "PC-3, read-out: BRD3 (DMSO = 100), PC3 cells"}}, "note": "Read-outs that look alike come from different tables or passages of the source."}
{"smiles": "COC(=O)CNC(=O)Cc1csc(-c2ccc3cccc(OCCN4CCN(C(=O)C[C@@H]5N=C(c6ccc(Cl)cc6)c6c(sc(C)c6C)-n6c(C)nnc65)CC4)c3c2)n1", "note": "[SJ46420]", "values": [{"measurement": "ubiquitylation of BRD3BD2 in reconstituted biochemical assays", "setting": "[1]", "result": "unable to promote ubiquitylation"}, {"measurement": "selectivity for BRD3 over BRD4 (DC50)", "setting": "BRD3; 22Rv1", "result": "~ 44 fold"}, {"measurement": "remaining activity at 0.16 µM", "setting": "BRD3; 22Rv1, 24 h, read-out: BRD3 level relative to DMSO (100%), 22Rv1, 0.16µM, 24 h, Fig S6f", "result": "74 ± 4.4", "unit": "%"}, {"measurement": "remaining activity at 0.31 µM", "setting": "BRD3; 22Rv1, 24 h, read-out: BRD3 level relative to DMSO (100%), 22Rv1, 0.31µM, 24 h, Fig S6f", "result": "54 ± 11", "unit": "%"}, {"measurement": "remaining activity at 0.63 µM", "setting": "BRD3; 22Rv1, 24 h, read-out: BRD3 level relative to DMSO (100%), 22Rv1, 0.63µM, 24 h, Fig S6f", "result": "45 ± 4.6", "unit": "%"}, {"measurement": "remaining activity at 1.3 µM", "setting": "BRD3; 22Rv1, 24 h, read-out: BRD3 level relative to DMSO (100%), 22Rv1, 1.3µM, 24 h, Fig S6f", "result": "27 ± 2.2", "unit": "%"}, {"measurement": "remaining activity at 2.5 µM", "setting": "BRD3; 22Rv1, 24 h, read-out: BRD3 level relative to DMSO (100%), 22Rv1, 2.5µM, 24 h, Fig S6f", "result": "21 ± 3.7", "unit": "%"}, {"measurement": "remaining activity at 5 µM", "setting": "BRD3; 22Rv1, 24 h, read-out: BRD3 level relative to DMSO (100%), 22Rv1, 5µM, 24 h, Fig S6f", "result": "4.3 ± 3.5", "unit": "%"}, {"measurement": "remaining activity at 10 µM", "setting": "BRD3; 22Rv1, 24 h, read-out: BRD3 level relative to DMSO (100%), 22Rv1, 10µM, 24 h, Fig S6f", "result": "2.9 ± 2.8", "unit": "%"}, {"measurement": "remaining activity at 2.19382 µM", "setting": "BRD3; [2]", "result": 71.3, "unit": "%"}, {"measurement": "remaining activity at 2.49485 µM", "setting": "BRD3; [2]", "result": 46.9, "unit": "%"}, {"measurement": "remaining activity at 2.79588 µM", "setting": "BRD3; [2]", "result": 42.3, "unit": "%"}, {"measurement": "remaining activity at 3.09691 µM", "setting": "BRD3; [2]", "result": 29.2, "unit": "%"}, {"measurement": "remaining activity at 3.39794 µM", "setting": "BRD3; [2]", "result": 23.9, "unit": "%"}, {"measurement": "Dmax", "setting": "BRD3; 22Rv1, read-out: BRD3 Dmax, 22Rv1, 24 h dose", "result": 93.7, "unit": "%"}, {"measurement": "remaining activity at 0.156 µM", "setting": "BRD3; 22Rv1, read-out: BRD3 level, Western blot quantification (DMSO = 100), Fig S6f, 22RV1 KO/rescue Dose Response, 0.156 uM", "result": 71.3, "unit": "%"}, {"measurement": "remaining activity at 0.313 µM", "setting": "BRD3; 22Rv1, read-out: BRD3 level, Western blot quantification (DMSO = 100), Fig S6f, 22RV1 KO/rescue Dose Response, 0.313 uM", "result": 46.9, "unit": "%"}, {"measurement": "remaining activity at 0.625 µM", "setting": "BRD3; 22Rv1, read-out: BRD3 level, Western blot quantification (DMSO = 100), Fig S6f, 22RV1 KO/rescue Dose Response, 0.625 uM", "result": 42.3, "unit": "%"}, {"measurement": "remaining activity at 1.25 µM", "setting": "BRD3; 22Rv1, read-out: BRD3 level, Western blot quantification (DMSO = 100), Fig S6f, 22RV1 KO/rescue Dose Response, 1.25 uM", "result": 29.2, "unit": "%"}, {"measurement": "remaining activity at 2.5 µM", "setting": "BRD3; 22Rv1, read-out: BRD3 level, Western blot quantification (DMSO = 100), Fig S6f, 22RV1 KO/rescue Dose Response, 2.5 uM", "result": 23.9, "unit": "%"}, {"measurement": "remaining activity at 0.16 µM", "setting": "BRD3; 24 h, read-out: BRD3 level relative to DMSO (100%), PC3, 0.16µM, 24 h, Fig S6e", "result": "107 ± 8.6", "unit": "%"}, {"measurement": "remaining activity at 0.31 µM", "setting": "BRD3; 24 h, read-out: BRD3 level relative to DMSO (100%), PC3, 0.31µM, 24 h, Fig S6e", "result": "72 ± 3.2", "unit": "%"}, {"measurement": "remaining activity at 0.63 µM", "setting": "BRD3; 24 h, read-out: BRD3 level relative to DMSO (100%), PC3, 0.63µM, 24 h, Fig S6e", "result": "32 ± 5", "unit": "%"}, {"measurement": "remaining activity at 1.3 µM", "setting": "BRD3; 24 h, read-out: BRD3 level relative to DMSO (100%), PC3, 1.3µM, 24 h, Fig S6e", "result": "13 ± 2.8", "unit": "%"}, {"measurement": "remaining activity at 2.5 µM", "setting": "BRD3; 24 h, read-out: BRD3 level relative to DMSO (100%), PC3, 2.5µM, 24 h, Fig S6e", "result": "7.3 ± 2.7", "unit": "%"}, {"measurement": "remaining activity at 5 µM", "setting": "BRD3; 24 h, read-out: BRD3 level relative to DMSO (100%), PC3, 5µM, 24 h, Fig S6e", "result": "4.8 ± 2.4", "unit": "%"}, {"measurement": "remaining activity at 10 µM", "setting": "BRD3; 24 h, read-out: BRD3 level relative to DMSO (100%), PC3, 10µM, 24 h, Fig S6e", "result": "1.8 ± 2.1", "unit": "%"}, {"measurement": "BRD3 levels in U2OS cell line with KLHDC2 knocked out", "setting": "BRD3; 24 h dose, Fig 6b", "result": "unaffected"}, {"measurement": "remaining activity at 0.2 µM", "setting": "BRD3; AU565, 8 h, read-out: BRD3 level relative to DMSO (100%), AU565, 0.2µM, 8 h, Fig S6c", "result": "56 ± 3.4", "unit": "%"}, {"measurement": "remaining activity at 1 µM", "setting": "BRD3; AU565, 8 h, read-out: BRD3 level relative to DMSO (100%), AU565, 1µM, 8 h, Fig S6c", "result": "29 ± 2.4", "unit": "%"}, {"measurement": "remaining activity at 5 µM", "setting": "BRD3; AU565, 8 h, read-out: BRD3 level relative to DMSO (100%), AU565, 5µM, 8 h, Fig S6c", "result": "3.9 ± 1.1", "unit": "%"}, {"measurement": "remaining activity at 0.2 µM", "setting": "BRD3; AU565, read-out: BRD3 level, Western blot quantification (DMSO = 100), Fig S6c, AU565 Cells, 0.2 uM", "result": 58.8, "unit": "%"}, {"measurement": "remaining activity at 1 µM", "setting": "BRD3; AU565, read-out: BRD3 level, Western blot quantification (DMSO = 100), Fig S6c, AU565 Cells, 1 uM", "result": 30.4, "unit": "%"}, {"measurement": "remaining activity at 5 µM", "setting": "BRD3; AU565, read-out: BRD3 level, Western blot quantification (DMSO = 100), Fig S6c, AU565 Cells, 5 uM", "result": 4.75, "unit": "%"}, {"measurement": "remaining activity at 2.5 µM", "setting": "BRD3; HEK-293T, 24 h, read-out: BRD3 level relative to DMSO (100%), 293T, 2.5µM, 24 h, Fig S6a", "result": "44 ± 2.3", "unit": "%"}, {"measurement": "remaining activity at 5 µM", "setting": "BRD3; HEK-293T, 24 h, read-out: BRD3 level relative to DMSO (100%), 293T, 5µM, 24 h, Fig S6a", "result": "18 ± 3.7", "unit": "%"}, {"measurement": "remaining activity at 2.5 µM", "setting": "BRD3; HEK-293T, read-out: BRD3 level, Western blot quantification (DMSO = 100), Fig S6a, 293T cells, 2.5 uM", "result": 46, "unit": "%"}, {"measurement": "remaining activity at 5 µM", "setting": "BRD3; HEK-293T, read-out: BRD3 level, Western blot quantification (DMSO = 100), Fig S6a, 293T cells, 5 uM", "result": 20.9, "unit": "%"}, {"measurement": "remaining activity at 2.5 µM", "setting": "BRD3; MDA-MB-468, 24 h, read-out: BRD3 level relative to DMSO (100%), MDA-MB-468, 2.5µM, 24 h, Fig S6b", "result": "41 ± 3.3", "unit": "%"}, {"measurement": "remaining activity at 5 µM", "setting": "BRD3; MDA-MB-468, 24 h, read-out: BRD3 level relative to DMSO (100%), MDA-MB-468, 5µM, 24 h, Fig S6b", "result": "20 ± 2.9", "unit": "%"}, {"measurement": "remaining activity at 10 µM", "setting": "BRD3; MDA-MB-468, 24 h, read-out: BRD3 level relative to DMSO (100%), MDA-MB-468, 10µM, 24 h, Fig S6b", "result": "15 ± 2.2", "unit": "%"}, {"measurement": "remaining activity at 2 µM", "setting": "BRD3; MDA-MB-468, read-out: BRD3 level, Western blot quantification (DMSO = 100), Fig S6b, MDA-MB468 Cells, 2 uM", "result": 39.3, "unit": "%"}, {"measurement": "remaining activity at 5 µM", "setting": "BRD3; MDA-MB-468, read-out: BRD3 level, Western blot quantification (DMSO = 100), Fig S6b, MDA-MB468 Cells, 5 uM", "result": 17.8, "unit": "%"}, {"measurement": "remaining activity at 10 µM", "setting": "BRD3; MDA-MB-468, read-out: BRD3 level, Western blot quantification (DMSO = 100), Fig S6b, MDA-MB468 Cells, 10 uM", "result": 13.8, "unit": "%"}, {"measurement": "selectivity for BRD3 over BRD4 (DC50)", "setting": "BRD3; PC3", "result": "~ 28 fold"}, {"measurement": "remaining activity at 2.19382 µM", "setting": "BRD3; [3]", "result": 108, "unit": "%"}, {"measurement": "remaining activity at 2.49485 µM", "setting": "BRD3; [3]", "result": 70.7, "unit": "%"}, {"measurement": "remaining activity at 2.79588 µM", "setting": "BRD3; [3]", "result": 29.3, "unit": "%"}, {"measurement": "remaining activity at 3.09691 µM", "setting": "BRD3; [3]", "result": 11.3, "unit": "%"}, {"measurement": "remaining activity at 3.39794 µM", "setting": "BRD3; [3]", "result": 5.44, "unit": "%"}, {"measurement": "remaining activity at 1 µM", "setting": "BRD3; SK-BR-3, 2 h, read-out: BRD3 level relative to DMSO (100%), SKBR3, 1µM, 2hr, Fig S6g", "result": "49 ± 6.7", "unit": "%"}, {"measurement": "remaining activity at 5 µM", "setting": "BRD3; SK-BR-3, 2 h, read-out: BRD3 level relative to DMSO (100%), SKBR3, 5µM, 2hr, Fig S6g", "result": "35 ± 5.2", "unit": "%"}, {"measurement": "remaining activity at 1 µM", "setting": "BRD3; SK-BR-3, 2 h, read-out: BRD3 level, Western blot quantification (DMSO = 100), Fig S6g, SKBR3 Time course, 1 uM, 2hr", "result": 54.5, "unit": "%"}, {"measurement": "remaining activity at 5 µM", "setting": "BRD3; SK-BR-3, 2 h, read-out: BRD3 level, Western blot quantification (DMSO = 100), Fig S6g, SKBR3 Time course, 5 uM, 2hr", "result": 39.4, "unit": "%"}]}
